According to US8906868B2, “Aminoglycoside derivatives” (Rempex Pharmaceuticals, Inc., priority 2010, dated 2014):
Values after ≈ are worked out from the molar mass of the structure shown. Read-outs that look alike come from different tables or passages of the source.

What was measured:
ECM6006 aph(3′)-III = assay: microbe, parasite or virus in culture; type: cell-based, Escherichia coli; conditions: Escherichia coli, read-out: Compound MIC on Bacterial Strains: ECM6006 aph(3′)-III
Method: (§1) To compare microbiological activity of the test compounds, minimum inhibitory concentrations (MIC.s) were determined. Antibiotic MICs were obtained using the broth microdilution method according to Clinical and Laboratory Standards Institute (CLSI) approved guidelines (Methods for dilution antimicrobial susceptibility tests for bacteria that grow aerobically; approved standard—7th ed. CLSI document M7-A7. Clinical and Laboratory Standards Institute, Wayne, Pa., incorporated herein by reference in its entirety). Antibiotics were dissolved as specified by CLSI (Performance standards for antimicrobial susceptibility testing; Seventeenth informational supplement. CLSI document M100-S17. Clinical and Laboratory Standards Institute, Wayne, Pa., incorporated herein by reference in its entirety), and were serially diluted 2-fold in cation adjusted Mueller Hinton Broth (CaMHB) at 2× concentration. Bacterial inoculums were prepared in CaMHB by suspension of a colony from an agar plate that was prepared the previous day to obtain a final concentration of 5×10^5CFU/ml. The plates were incubated for 18 hours at 35° C. […] MIC.s were determined by reading the turbidity of plate wells using a SpectraMax Plus384 plate reader (Molecular Devices, Sunnyvale, Calif., USA) at 600 nm and were confirmed by visual inspection.
(§2) Activity of the test compounds was determined using QC strains and strains with known aminoglycoside resistance mechanisms (TABLE 3). This specific panel contained strains expressing enzymes that covalently modify N2″, N3 and N3′ positions.

ECM6009 aac(3)-II = assay: microbe, parasite or virus in culture; type: cell-based, Escherichia coli; conditions: Escherichia coli, read-out: Compound MIC on Bacterial Strains: ECM6009 aac(3)-II
Method: as §1, §2

ECM6010 ant(2″)-I = assay: microbe, parasite or virus in culture; type: cell-based, Escherichia coli; conditions: Escherichia coli, read-out: Compound MIC on Bacterial Strains: ECM6010 ant(2″)-I
Method: as §1, §2

ECM6011 aph(3′)-I = assay: microbe, parasite or virus in culture; type: cell-based, Escherichia coli; conditions: Escherichia coli, read-out: Compound MIC on Bacterial Strains: ECM6011 aph(3′)-I
Method: as §1, §2

ECM6003 rmtB = assay: microbe, parasite or virus in culture; type: cell-based, Escherichia coli; conditions: Escherichia coli; Table 3; read-out: Compound MIC on Bacterial Strains: ECM6003 rmtB
Method: as §1, §2
The panel also contained a strain expressing ribosomal RNA methylase, RmtB.

EC1002 aph(3′)-IV = assay: organism not typed; type: cell-based; conditions: read-out: Compound MIC on Bacterial Strains: EC1002 aph(3′)-IV
Method: as §1, §2

EC1001 acc(6′)-Ib = assay: microbe, parasite or virus in culture; type: cell-based, Escherichia coli; conditions: Escherichia coli; Table 4; read-out: Compound MIC on Bacterial Strains: Escherichia coli EC1001 acc(6′)-Ib
Method: as §1

[1] = tested on: ECM6007 aac(6′) + aph(2″); assay: microbe, parasite or virus in culture; type: cell-based, Escherichia coli; conditions: Escherichia coli, 18 h; Table 4; read-out: Compound MIC on Bacterial Strains: Escherichia coli ECM6007 aac(6′) + aph(2″)
Method: as §1

ACM1005 ATCC 19004 = assay: MIC, broth microdilution; type: cell-based, Acinetobacter baumannii; conditions: Acinetobacter baumannii, ATCC19004; Table 4; read-out: Compound MIC on Bacterial Strains: Acinetobacter baumannii ACM1005 ATCC 19004
Method: as §1

ACM1006 acc(6′)-Ib = assay: microbe, parasite or virus in culture; type: cell-based, Acinetobacter baumannii; conditions: Acinetobacter baumannii; Table 4; read-out: Compound MIC on Bacterial Strains: Acinetobacter baumannii ACM1006 acc(6′)-Ib
Method: as §1

PAM3072 aac(6′)-II = assay: microbe, parasite or virus in culture; type: cell-based, Pseudomonas aeruginosa; conditions: Pseudomonas aeruginosa, Table 5; read-out: Compound MIC on Bacterial Strains: Pseudomonas aeruginosa PAM3072 aac(6′)-II
Method: as §1

PAM3073 aac(6′)-I = assay: microbe, parasite or virus in culture; type: cell-based, Pseudomonas aeruginosa; conditions: Pseudomonas aeruginosa, Table 5; read-out: Compound MIC on Bacterial Strains: Pseudomonas aeruginosa PAM3073 aac(6′)-I
Method: as §1

Sa 287 aac(6′) + aph(2″) = assay: microbe, parasite or virus in culture; type: cell-based, Staphylococcus aureus; conditions: Staphylococcus aureus, 18 h; Table 5; read-out: Compound MIC on Bacterial Strains: Staphylococcus aureus Sa 287 aac(6′) + aph(2″)
Method: as §1

[2] = tested on: Escherichia coli (ATCC 25922); assay: MIC, broth microdilution; conditions: Escherichia coli
[3] = tested on: Staphylococcus aureus (ATCC 29213); assay: MIC, broth microdilution; conditions: Staphylococcus aureus
[4] = tested on: Klebsiella pneumonia (ATCC 43816); assay: MIC, broth microdilution; conditions: Klebsiella pneumoniae, ATCC43816, read-out: Compound MIC on Bacterial Strains: K. pneumonia ATCC 43816
[5] = tested on: Pseudomonas aeruginosa (ATCC 27853); assay: MIC, broth microdilution; conditions: Pseudomonas aeruginosa
[6] = tested on: Acinetobacter baumannii (ATCC 19606); assay: MIC, broth microdilution; conditions: Acinetobacter baumannii, ATCC19606, read-out: Compound MIC on Bacterial Strains: A. baumannii ATCC 19606
[7] = ATCC25922, read-out: Compound MIC on Bacterial Strains: ECM6000 ATCC 25922
[8] = ATCC29213, read-out: Compound MIC on Bacterial Strains: Staphylococcus aureus SAM1000 ATCC 29213, Table 5
[9] = ATCC27853, read-out: Compound MIC on Bacterial Strains: Pseudomonas aeruginosa PAM3034 ATCC 27853

SMILES	MIC (ECM6006 aph(3′)-III)	MIC (ECM6009 aac(3)-II)	MIC (ECM6010 ant(2″)-I)	MIC (ECM6011 aph(3′)-I)	MIC (ECM6003 rmtB)	MIC (EC1002 aph(3′)-IV)	MIC (PAM3072 aac(6′)-II)	MIC (PAM3073 aac(6′)-I)	MIC (Sa 287 aac(6′) + aph(2″))	MIC [2, 7]	MIC [3, 8]	MIC [5, 9]	other results
CNC[C@@H]1CCC(N)[C@@H](OC2C(O)C(O[C@H]3OCC(C)(O)[C@H](NC)C3O)[C@H](NC(=O)[C@@H](O)C(O)CN)C[C@@H]2N)O1 (stereo in doubt) [Compound 23, (2S,3R)-4-amino-N-((1R,2S,3S,4R,5S)-5-amino-4-((2R,3R,6S)-3-amino-6-((methylamino)methyl)tetrahydro-2H-pyran-2-yloxy)-2-((2R,3R,4R,5R)-3,5-dihydroxy-5-methyl-4-(methylamino)tetrahydro-2H-pyran-2-yloxy)-3-hydroxycyclohexyl)-2,3-dihydroxybutanamide]	1 to 8 µg/mL (≈ 1.72 to 13.8 µM)	1 to 8 µg/mL (≈ 1.72 to 13.8 µM)	1 to 8 µg/mL (≈ 1.72 to 13.8 µM)	1 to 8 µg/mL (≈ 1.72 to 13.8 µM)	1 to 8 µg/mL (≈ 1.72 to 13.8 µM)	1 to 8 µg/mL (≈ 1.72 to 13.8 µM)	> 8 µg/mL	1 to 8 µg/mL (≈ 1.72 to 13.8 µM)	1 to 8 µg/mL	1 to 8 µg/mL (≈ 1.72 to 13.8 µM)	1 to 8 µg/mL (≈ 1.72 to 13.8 µM)	1 to 8 µg/mL (≈ 1.72 to 13.8 µM)	MIC (EC1001 acc(6′)-Ib): 1 to 8 µg/mL (≈ 1.72 to 13.8 µM); MIC [1]: < 1 µg/mL; MIC (ACM1005 ATCC 19004): 1 to 8 µg/mL (≈ 1.72 to 13.8 µM); MIC (ACM1006 acc(6′)-Ib): 1 to 8 µg/mL (≈ 1.72 to 13.8 µM); MIC ([2]; ATCC25922, read-out: Compound MIC on Bacterial Strains: E. coli ATCC 25922): < 1 µg/mL; MIC ([2]; ATCC25922, read-out: Compound MIC on Bacterial Strains: Escherichia coli ECM6000 ATCC 25922): 1 to 8 µg/mL (≈ 1.72 to 13.8 µM); MIC ([3]; ATCC29213, read-out: Compound MIC on Bacterial Strains: S. aureus ATCC 29213, QC strain, Table 2): < 1 µg/mL; MIC [4]: < 1 µg/mL; MIC ([5]; ATCC27853, read-out: Compound MIC on Bacterial Strains: P. aeruginosa ATCC 27853): 1 to 8 µg/mL (≈ 1.72 to 13.8 µM); MIC [6]: > 8 µg/mL
CN[C@@H]1C(O)[C@@H](OC2C(O)C(O[C@H]3O[C@H](CNCCO)CCC3N)[C@@H](N)C[C@H]2NC(=O)[C@@H](O)[C@@H](O)CN)OCC1(C)O (stereo partly shown) [Compound 4]	1 to 8 µg/mL (≈ 1.64 to 13.1 µM)	< 1 µg/mL	1 to 8 µg/mL (≈ 1.64 to 13.1 µM)	< 1 µg/mL	> 8 µg/mL	1 to 8 µg/mL (≈ 1.64 to 13.1 µM)	> 8 µg/mL	1 to 8 µg/mL (≈ 1.64 to 13.1 µM)	1 to 8 µg/mL	1 to 8 µg/mL (≈ 1.64 to 13.1 µM)	1 to 8 µg/mL (≈ 1.64 to 13.1 µM)	1 to 8 µg/mL (≈ 1.64 to 13.1 µM)	–
